# System: lentiviral vector particles pseudotyped with the HIV-1 JRFL envelope glycoprotein
# Test: Single-round infection assay
# Type: cell-based
# Conditions: PM-1 cells; supernatants of transfected HEK 293T cells; eGFP positive cells by flow cytometry
# Method: Virus production and titration: Viral vector supernatants were produced in HEK 293T cells. 6×10^6 cells were plated on 9.4 cm dishes 24 h prior to transfection. For transfection, the medium was changed and 25 μM chloroquine was added. 7.5 μg retroviral vector DNA was transfected by the calcium phosphate precipitation method. To generate GaLV pseudotyped retroviral particles 2 μg pALF-GaLV CM (GaLV CM expression plasmid; Stitz et al., Virology 2000) and 12.5 μg M57-DAW (MuLV gag/pol expression plasmid; Schambach et al., Gene Ther 2006) were transfected in addition. For the production of lentiviral vectors encoding eGFP, and pseudotyped with the HIV-1 JRFL envelope glycoprotein 7.5 μg pHR′SIN-cPPT-SEW-new (SIN lentiviral vector encoding eGFP), 12.5 μg pCMV-dR8.91 (lentiviral gag/pol expression plasmid), and 1 μg M118 (HIV-1 JRFL expression plasmid) were co-transfected. Medium was changed after 6-8 h incubation. […] In the case of lentiviral vectors expressing eGFP, vector titers were determined by transducing predefined numbers of PM-1 cells with serial dilutions of vector supernatant and analyzing the percentage of eGFP positive cells by flow cytometry. For retroviral vectors expressing secreted peptides transduced cells were analyzed by intracellular immunostaining for the peptide of interest. […]
sequence,measurement,value
WQQWERQVRFLDANITKLLEEAQIQQEKNMYELQELDKWASLWNWF [C46-EHO],antiviral (inhibitory) activity of supernatants containing secreted peptides,slightly reduced
